Earlier results, collected in patent publication US20050074494A1, “Itraconazole immediate release formulation” (priority 2003, published 2005).

solubility in alcohols (alcohols): very slightly soluble
solubility in dichloromethane (dichloromethane): freely soluble
solubility in water (water): insoluble
SMILES: CCC(C)n1ncn(-c2ccc(N3CCN(c4ccc(OCC5COC(Cn6cncn6)(c6ccc(Cl)cc6Cl)O5)cc4)CC3)cc2)c1=O (stereo not drawn) [Itraconazole, 4-[4-[4-[4-[[2-(2,4-dichlorophenyl)-2-(1H-1,2,4-triazol-1-ylmethyl)-1,3-dioxolan-4-yl]methoxy]phenyl]-1-piperazinyl]phenyl]-2,4-dihydro-2-(1-methylpropyl)-3H-1,2,4-triazol-3-one]
